Laboratory results from patent publication US20140045823A1 (Neurocrine Biosciences, Inc., priority 2012, published 2014).

The molecules below were run against T1, human GPR119 (Homo sapiens, UniProt Q8TDV5) (assay: AlphaScreen cAMP assay in MIN6 cells stably transfected with human GPR119). Settings: Min-6/hGPR119 cells, 45 min at room temperature.
T1 construct: expression vector for human GPR119 cDNA (Acc. No. NP_848566); expressed in transfected cells; Min-6/hGPR119
T1 sequence (Q8TDV5 1-335): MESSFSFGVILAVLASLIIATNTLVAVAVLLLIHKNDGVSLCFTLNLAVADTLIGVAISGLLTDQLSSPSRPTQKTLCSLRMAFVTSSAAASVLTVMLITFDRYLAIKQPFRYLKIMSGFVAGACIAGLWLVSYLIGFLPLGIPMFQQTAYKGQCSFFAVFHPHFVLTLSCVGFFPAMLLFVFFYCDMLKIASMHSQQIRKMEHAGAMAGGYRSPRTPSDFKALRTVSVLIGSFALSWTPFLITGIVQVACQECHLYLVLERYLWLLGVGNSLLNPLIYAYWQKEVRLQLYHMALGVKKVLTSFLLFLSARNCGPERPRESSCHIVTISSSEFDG
Assay type: cell-based
Summary of the method: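 MIN6 cells stably expressing human GPR119, seeded 10000/well and grown 24 h, were exposed to compound in pH 7.4 buffer with 0.5 mM IBMX, 0.1% BSA and 1% DMSO for 45 min at room temperature. Intracellular cAMP then measured by AlphaScreen.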

Compound | EC50 [nM]
CN(CC1CCOC1)C(=O)c1ccc(-c2ncc(C(=O)N(C3CC3)C3CCN(C(=O)OC(C)(C)C)CC3)cn2)c(F)c1 (stereo not shown) [Example 148, 4-[Cyclopropyl-(2-{2-fluoro-4-[methyl-(tetrahydro-furan-3-ylmethyl)-carbamoyl]-phenyl}-pyrimidine-5-carbonyl)-amino]-piperidine-1-carboxylic acid tert-butyl ester] | 395
CN(CC1(C)COC1)C(=O)c1ccc(-c2ncc(C(=O)N(C3CC3)C3CCN(C(=O)OC(C)(C)C)CC3)cn2)cc1 [Example 206, 4-[Cyclopropyl-(2-{4-[methyl-(3-methyl-oxetan-3-ylmethyl)-carbamoyl]-phenyl}-pyrimidine-5-carbonyl)-amino]-piperidine-1-carboxylic acid tert-butyl ester] | 312
COC(C)CN(C)C(=O)c1ccc(-c2ncc(C(=O)N(C3CC3)C3CCN(C(=O)OC(C)(C)C)CC3)cn2)cc1 (stereo not shown) [Example 173, 4-[Cyclopropyl-(2-{4-[(2-methoxy-propyl)-methyl-carbamoyl]-phenyl}-pyrimidine-5-carbonyl)-amino]-piperidine-1-carboxylic acid tert-butyl ester] | 234
CN(CC1CCOC1)C(=O)c1ccc(-c2ncc(C(=O)N(C3CC3)C3CCN(C(=O)OC(C)(C)C)CC3)cn2)cc1F (stereo not shown) [Example 115, 4-[Cyclopropyl-(2-{3-fluoro-4-[methyl-(tetrahydro-furan-3-ylmethyl)-carbamoyl]-phenyl}-pyrimidine-5-carbonyl)-amino]-piperidine-1-carboxylic acid tert-butyl ester] | 164
COc1ccc(NC(=O)Cc2ccc(-c3ncc(C(=O)N(C4CC4)C4CCN(C(=O)OC(C)(C)C)CC4)cn3)cc2)c(OC)c1 [Example 188, 4-[Cyclopropyl-(2-{4-[(2,4-dimethoxy-phenylcarbamoyl)-methyl]-phenyl}-pyrimidine-5-carbonyl)-amino]-piperidine-1-carboxylic acid tert-butyl ester] | 311
CC(C)(C)OC(=O)N1CCC(N(C(=O)c2cnc(-c3ccc(C(=O)N4CCCOCC4)c(F)c3)nc2)C2CC2)CC1 [Example 117, 4-(Cyclopropyl-{2-[3-fluoro-4-([1,4]oxazepane-4-carbonyl)-phenyl]-pyrimidine-5-carbonyl}-amino)-piperidine-1-carboxylic acid tert-butyl ester] | 275
CC(C)(C)OC(=O)N1CCC(N(C(=O)c2cnc(-c3ccc(C(=O)NCCn4ccc(C5CC5)n4)cc3)nc2)C2CC2)CC1 [Example 207, 4-[Cyclopropyl-(2-{4-[2-(3-cyclopropyl-pyrazol-1-yl)-ethylcarbamoyl]-phenyl}-pyrimidine-5-carbonyl)-amino]-piperidine-1-carboxylic acid tert-butyl ester] | 369
CC(C)(C)OC(=O)N1CCC(N(C(=O)c2cnc(-c3ccc(C(=O)NCC4CCCCO4)c(F)c3)nc2)C2CC2)CC1 (stereo not shown) [Example 152, 4-[Cyclopropyl-(2-{3-fluoro-4-[(tetrahydro-pyran-2-ylmethyl)-carbamoyl]-phenyl}-pyrimidine-5-carbonyl)-amino]-piperidine-1-carboxylic acid tert-butyl ester] | 109
COC1CCN(C(=O)c2ccc(-c3ncc(C(=O)N(C4CC4)C4CCN(C(=O)OC(C)(C)C)CC4)cn3)cc2F)CC1 [Example 164, 4-(Cyclopropyl-{2-[3-fluoro-4-(4-methoxy-piperidine-1-carbonyl)-phenyl]-pyrimidine-5-carbonyl}-amino)-piperidine-1-carboxylic acid tert-butyl ester] | 221
CO[C@@H]1CCN(C(=O)c2ccc(-c3ncc(C(=O)N(C4CC4)C4CCN(C(=O)OC(C)(C)C)CC4)cn3)cc2F)C1 [Example 118, 4-(Cyclopropyl-{2-[3-fluoro-4-(3-methoxy-pyrrolidine-1-carbonyl)-phenyl]-pyrimidine-5-carbonyl}-amino)-piperidine-1-carboxylic acid tert-butyl ester] | 129
Cc1nccn1-c1ncc(C(=O)N(C2CC2)C2CCN(C(=O)OC(C)C)CC2)cn1 [Example 54, 4-{Cyclopropyl-[2-(2-methyl-imidazol-1-yl)-pyrimidine-5-carbonyl]-amino}-piperidine-1-carboxylic acid isopropyl ester] | 129
CC(C)(C)OC(=O)N1CCC(N(C(=O)c2cnc(-c3ccc(C(=O)N4CCC[C@H]4C#N)c(F)c3)nc2)C2CC2)CC1 [Example 125, 4-({2-[4-(2-Cyano-pyrrolidine-1-carbonyl)-3-fluoro-phenyl]-pyrimidine-5-carbonyl}-cyclopropyl-amino)-piperidine-1-carboxylic acid tert-butyl ester] | 180
CN(CC1CCOCC1)C(=O)c1ccc(-c2ncc(C(=O)N(C3CC3)C3CCN(C(=O)OC(C)(C)C)CC3)cn2)cc1F [Example 158, 4-[Cyclopropyl-(2-{3-fluoro-4-[methyl-(tetrahydro-pyran-4-ylmethyl)-carbamoyl]-phenyl}-pyrimidine-5-carbonyl)-amino]-piperidine-1-carboxylic acid tert-butyl ester] | 359
Cc1noc(C2CCN(C(=O)c3ccc(-c4ncc(C(=O)N(C5CC5)C5CCN(C(=O)OC(C)(C)C)CC5)cn4)cc3F)C2)n1 (stereo not shown) [Example 104, 4-[Cyclopropyl-(2-{3-fluoro-4-[3-(3-methyl-[1,2,4]oxadiazol-5-yl)-pyrrolidine-1-carbonyl]-phenyl}-pyrimidine-5-carbonyl)-amino]-piperidine-1-carboxylic acid tert-butyl ester] | 180
CC(C)(C)OC(=O)N1CCC(N(C(=O)c2cnc(-c3ccc(C(=O)Nc4ccc(CO)cc4)c(F)c3)nc2)C2CC2)CC1 [Example 121, 4-(Cyclopropyl-{2-[3-fluoro-4-(4-hydroxymethyl-phenylcarbamoyl)-phenyl]-pyrimidine-5-carbonyl}-amino)-piperidine-1-carboxylic acid tert-butyl ester] | 180
CN(CC1CCOCC1)C(=O)c1ccc(-c2ncc(C(=O)N(C3CC3)C3CCN(C(=O)OC(C)(C)C)CC3)cn2)cc1 [Example 193, 4-[Cyclopropyl-(2-{4-[methyl-(tetrahydro-pyran-4-ylmethyl)-carbamoyl]-phenyl}-pyrimidine-5-carbonyl)-amino]-piperidine-1-carboxylic acid tert-butyl ester] | 300
CC(C)(C)OC(=O)N1CCC(N(C(=O)c2cnc(-c3ccc(C(=O)NCc4cncnc4)c(F)c3)nc2)C2CC2)CC1 [Example 162, 4-[Cyclopropyl-(2-{3-fluoro-4-[(pyrimidin-5-ylmethyl)-carbamoyl]-phenyl}-pyrimidine-5-carbonyl)-amino]-piperidine-1-carboxylic acid tert-butyl ester] | 501

Now from value to molecule:

EC50 [nM] | Compound
680 | CC(C)(C)OC(=O)N1CCC(N(C(=O)c2cn(-c3ccc(S(C)(=O)=O)cc3)cn2)C2CC2)CC1 [Example 17, 4-{Cyclopropyl-[1-(4-methanesulfonyl-phenyl)-1H-imidazole-4-carbonyl]-amino}-piperidine-1-carboxylic acid tert-butyl ester]
35 | CC(C)(C)OC(=O)N1CCC(N(C(=O)c2cnc(-c3ccc(C#N)c(F)c3)o2)C2CC2)CC1 [Example 32, 4-{[2-(4-Cyano-3-fluoro-phenyl)-oxazole-5-carbonyl]-cyclopropyl-amino}-piperidine-1-carboxylic acid tert-butyl ester]
48 | CC(C)(C)OC(=O)N1CCC(N(C(=O)c2cnc(-c3ccc(C#N)cc3F)o2)C2CC2)CC1 [Example 31, 4-{[2-(4-Cyano-2-fluoro-phenyl)-oxazole-5-carbonyl]-cyclopropyl-amino}-piperidine-1-carboxylic acid tert-butyl ester]
72 | CC(C)(C)OC(=O)N1CCC(N(C(=O)c2cnc(-c3cnco3)cn2)C2CC2)CC1 [Example 12, 4-[Cyclopropyl-(5-oxazol-5-yl-pyrazine-2-carbonyl)-amino]-piperidine-1-carboxylic acid tert-butyl ester]
9 | CC(C)(C)OC(=O)N1CCC(N(C(=O)c2cc(-c3ccc(C#N)cc3)on2)C2CC2)CC1 [Example 38, 4-{-[5-(4-Cyano-phenyl)-isoxazole-3-carbonyl]-cyclopropyl-amino}-piperidine-1-carboxylic acid tert-butyl ester]
3 | CC(C)(C)OC(=O)N1CCC(N(C(=O)c2cc(-c3ccc(C#N)cc3F)on2)C2CC2)CC1 [Example 39, 4-{[5-(4-Cyano-2-fluoro-phenyl)-isoxazole-3-carbonyl]-cyclopropyl-amino}-piperidine-1-carboxylic acid tert-butyl ester]
405 | CC(C)(C)OC(=O)N1CCC(N(C(=O)c2cnc(-c3ccc(C(=O)N4CCC(C#N)C4)c(F)c3)nc2)C2CC2)CC1 (stereo not shown) [Example 163, 4-({2-[4-(3-Cyano-pyrrolidine-1-carbonyl)-3-fluoro-phenyl]-pyrimidine-5-carbonyl}-cyclopropyl-amino)-piperidine-1-carboxylic acid tert-butyl ester]
210 | CC(C)(C)OC(=O)N1CCC(N(C(=O)c2cnc(-c3ccc(NS(C)(=O)=O)cc3)nc2)C2CC2)CC1 [Example 79, 4-{Cyclopropyl-[2-(4-methanesulfonylamino-phenyl)-pyrimidine-5-carbonyl]-amino}-piperidine-1-carboxylic acid tert-butyl ester]
